# Test results published in article PMC8956739, “A synthetic lipopeptide targeting top-priority multidrug-resistant Gram-negative pathogens” (Nature Communications, 2022).
# Values joined by “and” are separate entries in the source; they are usually repeats but may differ in a detail not shown here. Identical values can stand only once. Residues, ends and D or L forms follow the SMILES beside them.
# Experiments:
# Swiss mice = experiment: Acute toxicity in mice (maximum tolerated dose, IV bolus); format: in vivo, mouse; settings: replicates 1-4
# Method in brief: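 Female Swiss mice (7 weeks, 22–28 g) given single IV tail-vein bolus of lipopeptide in 0.9% saline, dosed as mg/kg free base. Clinical toxicity signs monitored over 0–24 h, most frequently in first 2 h.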
# P. aeruginosa ATCC 27853 = experiment: Neutropenic mouse bloodstream infection model; format: in vivo; settings: single IV dose 4 mg/kg
# Method in brief: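 Female Swiss mice made neutropenic with cyclophosphamide (150 mg/kg day −4, 100 mg/kg day −1), infected IV with 50 µL of 4 × 10^8 CFU/mL. Lipopeptide 4 mg/kg (free base) IV at 2 h post-inoculation, n = 3. Efficacy = Δlog10 CFU/mL blood versus saline at 4 h post-dose.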
# A. baumannii AB5075 = experiment: Transcriptomic analysis (RNA-Seq) of bacteria; format: cell-based, Acinetobacter baumannii; settings: for logFC (Differential gene expression for all genes), Geneid ABUW_RS00005 / logFC (Differential gene expression for all genes), Geneid ABUW_RS00020 / logFC (Fold change), gene ABUW_RS00010 / logFC (Fold change), gene ABUW_RS00030 / logFC (Fold change), gene ABUW_RS00035 / logFC (Fold change), gene recF (ABUW_RS00015) / 4h_1h logFC (Differential gene expression for all genes), Geneid ABUW_RS00005 / 4h_1h logFC (Differential gene expression for all genes), Geneid ABUW_RS00010 / 4h_1h logFC (Differential gene expression for all genes), Geneid ABUW_RS00015 / 4h_1h logFC (Differential gene expression for all genes), Geneid ABUW_RS00020: RNA-Seq A. baumannii AB5075; for log2FC, gene ABUW_RS01945 (acyl-CoA thioesterase II) / log2FC, gene ABUW_RS02545 (acyl-CoA thioesterase) / log2FC, gene ABUW_RS05045 (acyl-CoA thioesterase) / log2FC, gene ABUW_RS17575 (acyl-CoA thioesterase): pathway Fatty Acid and Lipid Degradation; for 4h_1h logFC (Differential gene expression for all genes), Geneid ABUW_RS00005 / 4h_1h logFC (Differential gene expression for all genes), Geneid ABUW_RS00010 / 4h_1h logFC (Differential gene expression for all genes), Geneid ABUW_RS00015 / 4h_1h logFC (Differential gene expression for all genes), Geneid ABUW_RS00020: 4h vs 1h
# Method: Mid-log phase A. baumannii AB5075 (~10^8 CFU/mL) in CaMHB was treated with colistin (2 and 8 μg/mL), F287, F319 or F365 (equimolar concentration to colistin) for 1 and 4 h. Total RNA was extracted using TRIzol Reagent (Invitrogen, USA) and RNeasy Mini Kit (Qiagen, Germany). Quality check of RNA samples was conducted with NanoDrop (Thermo Fisher Scientific, USA) and Agilent 2100 Bioanalyzer (Agilent Technologies, USA) for sequencing (150 bp paired-end) at Genewiz (Shanghai, China). Raw reads were aligned to A. baumannii AB5075 genome (GCF_000963815, https://www.ncbi.nlm.nih.gov/assembly/GCF_000963815.1/) using subread-aligner (subread 2.0.1) and summarized by featureCounts (subread 2.0.1). Principal component analysis (PCA) was conducted with mixOmics 6.14.1 in R. Differentially expressed genes were determined using limma 3.46.0 with a combination of fold change ≥ 2 and false discovery rate (FDR, by Benjamini–Hochberg algorithm) adjusted P-value ≤ 0.05 (n = 3). Enrichment analysis of gene differential expression in AB5075 was conducted using BioCyc (A. baumannii AB5075, version 25.5). UpSetR 1.4.0, ComplexHeatmap 2.6.2 and circlize 0.4.13 were used for data visualization. Raw data were deposited in Short Reads Archive (SRA) database under accession numbers SRR15235669-SRR15235725.
# [1] = system: MDR clinical isolates of Enterobacterales (n = 177, 152 carbapenem-resistant); experiment: Extended MIC screening, MDR clinical isolates; format: cell-based
# Method: MICs were determined in cation-adjusted Mueller–Hinton broth (CaMHB) by the broth micro-dilution method against ATCC strains and clinical isolates. MICs in the presence of Survanta® were determined as described above against P. aeruginosa ATCC 27853. In the 100 μL of fresh CaMHB containing polymyxins, 10% Survanta® (v/v, 2.5 mg/mL phospholipids) was added. MICs in the presence and absence of Survanta® were compared to determine the effect of binding to lung surfactant on the antibacterial activity of polymyxins.
smiles,measurement,setting,value
"CCCCCCCC(=O)N[C@@H](CCN)C(=O)N[C@H](C(=O)N[C@@H](CN)C(=O)N[C@H]1CCNC(=O)[C@H]([C@@H](C)O)NC(=O)[C@H](CCN)NC(=O)[C@H](CCN)NC(=O)[C@H](CC)NC(=O)[C@@H](CC(C)C)NC(=O)[C@H](CCN)NC1=O)[C@@H](C)O [Lipopeptide F287] (HELM PEPTIDE1{[CCCCCCCC(=O)[*:2]].[Dab].T.[NC[C@H](N[*:1])C(=O)[*:2]].[Dab].[Dab].[dL].[Abu].[Dab].[Dab].T}$PEPTIDE1,PEPTIDE1,5:R3-11:R2$$$V2.0)","MTD, single replicate",Swiss mice,6.6 mg/kg
same,"Log10 CFU/mL blood at 4 h, Mean",P. aeruginosa ATCC 27853; 4 h,5.02 Log10 CFU/mL blood
same,Δlog10 CFU/mL blood (mean),"P. aeruginosa ATCC 27853; 4 h, treated minus control, mean of replicates, 4 mg/kg",−2.42 log10 CFU/mL blood
same,"Log10 CFU/mL blood at 4 h, single mouse","P. aeruginosa ATCC 27853; 4 h, 4 mg/kg",5.21 Log10 CFU/mL blood and 4.68 Log10 CFU/mL blood and 5.18 Log10 CFU/mL blood
same,"Delta Log10 CFU/mL blood at 4 h, single mouse","P. aeruginosa ATCC 27853; treated mouse minus mean of vehicle mice, 4 mg/kg",-2.23 Log10 CFU/mL blood and -2.77 Log10 CFU/mL blood and -2.27 Log10 CFU/mL blood
same,"logFC (Differential gene expression for all genes), Geneid ABUW_RS00005","A. baumannii AB5075; H vs Cont, 1h",-0.2237
same,"logFC (Differential gene expression for all genes), Geneid ABUW_RS00020","A. baumannii AB5075; H vs Cont, 1h",0.4813
same,"logFC (Fold change), gene ABUW_RS00010","A. baumannii AB5075; H vs Cont, 1h",0.6329
same,"logFC (Fold change), gene ABUW_RS00030","A. baumannii AB5075; H vs Cont, 1h",-0.7589
same,"logFC (Fold change), gene ABUW_RS00035","A. baumannii AB5075; H vs Cont, 1h",1.171
same,"logFC (Fold change), gene recF (ABUW_RS00015)","A. baumannii AB5075; H vs Cont, 1h",0.0004857
same,"log2FC, gene ABUW_RS01945 (acyl-CoA thioesterase II)","A. baumannii AB5075; H vs Cont, 1h",0.3471
same,"log2FC, gene ABUW_RS02545 (acyl-CoA thioesterase)","A. baumannii AB5075; H vs Cont, 1h",1.413
same,"log2FC, gene ABUW_RS05045 (acyl-CoA thioesterase)","A. baumannii AB5075; H vs Cont, 1h",0.6077
same,"log2FC, gene ABUW_RS17575 (acyl-CoA thioesterase)","A. baumannii AB5075; H vs Cont, 1h",-1.9504
same,"logFC (Differential gene expression for all genes), Geneid ABUW_RS00005","A. baumannii AB5075; H vs Cont, 4h",-0.2595
same,"logFC (Differential gene expression for all genes), Geneid ABUW_RS00020","A. baumannii AB5075; H vs Cont, 4h",0.07692
same,"logFC (Fold change), gene ABUW_RS00010","A. baumannii AB5075; H vs Cont, 4h",1.124
same,"logFC (Fold change), gene ABUW_RS00030","A. baumannii AB5075; H vs Cont, 4h",-1.151
same,"logFC (Fold change), gene ABUW_RS00035","A. baumannii AB5075; H vs Cont, 4h",1.24
same,"logFC (Fold change), gene recF (ABUW_RS00015)","A. baumannii AB5075; H vs Cont, 4h",-1.077
same,"log2FC, gene ABUW_RS01945 (acyl-CoA thioesterase II)","A. baumannii AB5075; H vs Cont, 4h",-0.6425
same,"log2FC, gene ABUW_RS02545 (acyl-CoA thioesterase)","A. baumannii AB5075; H vs Cont, 4h",1.263
same,"log2FC, gene ABUW_RS05045 (acyl-CoA thioesterase)","A. baumannii AB5075; H vs Cont, 4h",0.8039
same,"log2FC, gene ABUW_RS17575 (acyl-CoA thioesterase)","A. baumannii AB5075; H vs Cont, 4h",-1.276
same,"4h_1h logFC (Differential gene expression for all genes), Geneid ABUW_RS00005",A. baumannii AB5075; H,-0.6471
same,"4h_1h logFC (Differential gene expression for all genes), Geneid ABUW_RS00010",A. baumannii AB5075; H,0.4305
same,"4h_1h logFC (Differential gene expression for all genes), Geneid ABUW_RS00015",A. baumannii AB5075; H,-1.349
same,"4h_1h logFC (Differential gene expression for all genes), Geneid ABUW_RS00020",A. baumannii AB5075; H,0.3991
same,"logFC (Differential gene expression for all genes), Geneid ABUW_RS00005","A. baumannii AB5075; L vs Cont, 1h",0.09601
same,"logFC (Differential gene expression for all genes), Geneid ABUW_RS00020","A. baumannii AB5075; L vs Cont, 1h",0.1731
same,"logFC (Fold change), gene ABUW_RS00010","A. baumannii AB5075; L vs Cont, 1h",0.3235
same,"logFC (Fold change), gene ABUW_RS00030","A. baumannii AB5075; L vs Cont, 1h",-0.01757
same,"logFC (Fold change), gene ABUW_RS00035","A. baumannii AB5075; L vs Cont, 1h",0.2853
same,"logFC (Fold change), gene recF (ABUW_RS00015)","A. baumannii AB5075; L vs Cont, 1h",0.06622
same,"log2FC, gene ABUW_RS01945 (acyl-CoA thioesterase II)","A. baumannii AB5075; L vs Cont, 1h",0.394
same,"log2FC, gene ABUW_RS02545 (acyl-CoA thioesterase)","A. baumannii AB5075; L vs Cont, 1h",0.4759
same,"log2FC, gene ABUW_RS05045 (acyl-CoA thioesterase)","A. baumannii AB5075; L vs Cont, 1h",-0.04078
same,"log2FC, gene ABUW_RS17575 (acyl-CoA thioesterase)","A. baumannii AB5075; L vs Cont, 1h",0.9551
same,"logFC (Differential gene expression for all genes), Geneid ABUW_RS00005","A. baumannii AB5075; L vs Cont, 4h",0.1326
same,"logFC (Differential gene expression for all genes), Geneid ABUW_RS00020","A. baumannii AB5075; L vs Cont, 4h",-0.2281
same,"logFC (Fold change), gene ABUW_RS00010","A. baumannii AB5075; L vs Cont, 4h",0.09364
same,"logFC (Fold change), gene ABUW_RS00030","A. baumannii AB5075; L vs Cont, 4h",0.3636
same,"logFC (Fold change), gene ABUW_RS00035","A. baumannii AB5075; L vs Cont, 4h",0.2169
same,"logFC (Fold change), gene recF (ABUW_RS00015)","A. baumannii AB5075; L vs Cont, 4h",0.1608
same,"log2FC, gene ABUW_RS01945 (acyl-CoA thioesterase II)","A. baumannii AB5075; L vs Cont, 4h",-0.1224
same,"log2FC, gene ABUW_RS02545 (acyl-CoA thioesterase)","A. baumannii AB5075; L vs Cont, 4h",-0.4528
same,"log2FC, gene ABUW_RS05045 (acyl-CoA thioesterase)","A. baumannii AB5075; L vs Cont, 4h",0.3557
same,"log2FC, gene ABUW_RS17575 (acyl-CoA thioesterase)","A. baumannii AB5075; L vs Cont, 4h",-0.4747
same,"4h_1h logFC (Differential gene expression for all genes), Geneid ABUW_RS00005",A. baumannii AB5075; L,-0.01752
same,"4h_1h logFC (Differential gene expression for all genes), Geneid ABUW_RS00010",A. baumannii AB5075; L,-0.721
same,"4h_1h logFC (Differential gene expression for all genes), Geneid ABUW_RS00015",A. baumannii AB5075; L,0.1845
same,"4h_1h logFC (Differential gene expression for all genes), Geneid ABUW_RS00020",A. baumannii AB5075; L,-0.0476
same,Number of isolates,[1]; isolates with MIC 0.05 µg/mL,0
same,Number of isolates,[1]; isolates with MIC 0.125 µg/mL,0
same,Number of isolates,[1]; isolates with MIC 0.25 µg/mL,17
same,Number of isolates,[1]; isolates with MIC 0.5 µg/mL,131
same,Number of isolates,[1]; isolates with MIC 1 µg/mL,5
same,Number of isolates,[1]; isolates with MIC 2 µg/mL,2
same,Number of isolates,[1]; isolates with MIC 4 µg/mL,1
same,Number of isolates,[1]; isolates with MIC 8 µg/mL,2
same,Number of isolates,[1]; isolates with MIC 16 µg/mL,5
same,Number of isolates,[1]; isolates with MIC 32 µg/mL,7
same,Number of isolates,[1]; isolates with MIC 64 µg/mL,3
same,Number of isolates,[1]; isolates with MIC >64 µg/mL,4
